In experiment [1] the target is T1, Cytochrome P450 1A2 (Homo sapiens, UniProt P05177).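 Note: PubChem cytochrome P450 panel assay, CYP1A2 panel member.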
T1 sequence (P05177 whole entry): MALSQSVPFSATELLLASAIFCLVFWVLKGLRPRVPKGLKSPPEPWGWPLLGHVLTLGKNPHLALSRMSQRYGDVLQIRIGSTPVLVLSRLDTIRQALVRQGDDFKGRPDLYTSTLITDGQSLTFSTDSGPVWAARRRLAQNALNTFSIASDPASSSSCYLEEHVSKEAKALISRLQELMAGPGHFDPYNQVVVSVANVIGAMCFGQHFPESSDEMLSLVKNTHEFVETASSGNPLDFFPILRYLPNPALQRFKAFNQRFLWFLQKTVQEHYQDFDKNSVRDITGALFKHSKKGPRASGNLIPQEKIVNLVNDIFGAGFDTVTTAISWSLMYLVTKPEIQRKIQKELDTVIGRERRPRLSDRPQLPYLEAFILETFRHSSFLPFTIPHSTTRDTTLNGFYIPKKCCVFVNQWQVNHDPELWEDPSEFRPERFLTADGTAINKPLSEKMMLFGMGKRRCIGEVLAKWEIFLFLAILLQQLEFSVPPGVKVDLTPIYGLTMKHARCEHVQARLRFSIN

Experiment [2] concerns the target T2, Protein RecA (Mycobacterium tuberculosis, UniProt P9WHJ3).
T2 sequence (P9WHJ3 whole entry): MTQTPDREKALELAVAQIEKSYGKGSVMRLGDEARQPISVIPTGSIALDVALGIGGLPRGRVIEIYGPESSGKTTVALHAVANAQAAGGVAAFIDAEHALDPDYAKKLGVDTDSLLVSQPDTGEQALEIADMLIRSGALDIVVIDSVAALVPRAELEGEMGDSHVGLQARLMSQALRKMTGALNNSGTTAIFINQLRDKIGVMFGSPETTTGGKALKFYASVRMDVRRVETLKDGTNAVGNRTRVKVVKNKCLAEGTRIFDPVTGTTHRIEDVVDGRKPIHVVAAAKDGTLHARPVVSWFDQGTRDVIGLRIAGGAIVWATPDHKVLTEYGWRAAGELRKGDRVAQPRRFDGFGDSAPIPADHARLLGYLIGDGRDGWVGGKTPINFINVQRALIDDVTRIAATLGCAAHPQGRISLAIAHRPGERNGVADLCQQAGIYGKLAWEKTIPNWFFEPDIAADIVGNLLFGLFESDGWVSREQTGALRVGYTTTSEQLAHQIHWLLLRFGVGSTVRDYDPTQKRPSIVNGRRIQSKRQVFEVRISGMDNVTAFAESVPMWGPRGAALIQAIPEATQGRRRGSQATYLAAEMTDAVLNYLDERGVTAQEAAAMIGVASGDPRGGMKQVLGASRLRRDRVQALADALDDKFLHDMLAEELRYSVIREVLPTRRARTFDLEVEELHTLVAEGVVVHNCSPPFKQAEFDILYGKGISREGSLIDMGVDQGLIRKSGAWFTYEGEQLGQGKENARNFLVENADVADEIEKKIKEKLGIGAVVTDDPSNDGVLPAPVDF
The experiment can be described thus: Fluorescence Cell-Free Homogeneous Dose Retest to Identify Inhibitors of RecA-Intein Splicing Activity. [Related pubchem assays (depositor defined):AID2097, AID2223, AID489010, AID492950]. Type of experiment: functional.

Experiment [3] addresses T3, Replicative DNA helicase DnaB (Mycobacterium tuberculosis, UniProt P9WMR3).
T3 sequence (P9WMR3 whole entry): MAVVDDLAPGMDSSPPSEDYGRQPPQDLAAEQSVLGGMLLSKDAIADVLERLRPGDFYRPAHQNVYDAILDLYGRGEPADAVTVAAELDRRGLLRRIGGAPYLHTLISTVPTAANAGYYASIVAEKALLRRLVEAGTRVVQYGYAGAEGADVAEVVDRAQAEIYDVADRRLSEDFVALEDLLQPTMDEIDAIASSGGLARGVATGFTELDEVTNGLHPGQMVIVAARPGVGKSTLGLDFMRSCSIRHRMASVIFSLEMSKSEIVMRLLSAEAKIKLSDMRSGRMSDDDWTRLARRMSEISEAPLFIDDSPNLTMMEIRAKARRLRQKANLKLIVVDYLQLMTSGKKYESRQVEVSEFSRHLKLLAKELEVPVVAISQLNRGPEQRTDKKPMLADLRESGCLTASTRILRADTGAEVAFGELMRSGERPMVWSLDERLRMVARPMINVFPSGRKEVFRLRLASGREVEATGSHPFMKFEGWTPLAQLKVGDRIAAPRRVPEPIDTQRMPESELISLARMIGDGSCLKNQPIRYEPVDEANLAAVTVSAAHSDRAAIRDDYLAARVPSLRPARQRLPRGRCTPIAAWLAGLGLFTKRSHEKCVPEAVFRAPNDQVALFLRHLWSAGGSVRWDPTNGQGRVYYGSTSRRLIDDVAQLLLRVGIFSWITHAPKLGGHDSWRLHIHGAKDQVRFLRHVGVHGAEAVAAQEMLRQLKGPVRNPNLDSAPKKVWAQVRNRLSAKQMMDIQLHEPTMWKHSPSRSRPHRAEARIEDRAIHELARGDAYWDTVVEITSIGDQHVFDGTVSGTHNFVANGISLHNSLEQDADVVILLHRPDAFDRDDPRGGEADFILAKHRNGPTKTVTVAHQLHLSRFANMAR
The experiment can be described thus: DnaB intein splicing inhibitors, dose response, biochemical, cell-free fluorescence (AID 449749). Type of experiment: functional.

Experiment [4] has as its target T4, Heat shock factor protein 1 (Mus musculus, UniProt P38532).
T4 sequence (P38532 whole entry): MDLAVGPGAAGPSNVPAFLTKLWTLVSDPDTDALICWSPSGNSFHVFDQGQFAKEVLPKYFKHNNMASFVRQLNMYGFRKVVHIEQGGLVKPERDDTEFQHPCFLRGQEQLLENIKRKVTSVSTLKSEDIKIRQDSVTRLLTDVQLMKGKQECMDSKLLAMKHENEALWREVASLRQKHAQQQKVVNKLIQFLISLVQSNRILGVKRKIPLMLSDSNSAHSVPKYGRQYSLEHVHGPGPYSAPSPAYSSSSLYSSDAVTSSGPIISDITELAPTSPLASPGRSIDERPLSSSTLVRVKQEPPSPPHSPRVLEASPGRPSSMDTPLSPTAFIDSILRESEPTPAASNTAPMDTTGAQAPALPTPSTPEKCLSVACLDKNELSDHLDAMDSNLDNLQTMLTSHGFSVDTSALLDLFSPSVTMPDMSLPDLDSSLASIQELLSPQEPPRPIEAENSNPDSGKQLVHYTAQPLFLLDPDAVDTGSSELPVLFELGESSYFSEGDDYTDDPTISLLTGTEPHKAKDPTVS
The experiment can be described thus: HSF1 potentiators in luciferase reporter cells, confirmation, cell-based, NIH3T3, luminescence, dose retest (AID 435004).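 Note: stress induced by proteasome inhibitor MG132 added 30 min after compound; luciferase reporter driven by HSF1 response element in NIH3T3 cells; actives raise luminescence as potentiators of the MG132 stress response.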 Type of experiment: functional.

Experiment [5] is described as follows: cytotoxicity toward NIH3T3 fibroblasts, dose response, counter-screen, cell-based, ATP luminescence, mouse fibroblasts (AID 2010).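 Note: cells exposed to compound for about 90 hours before reading.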 Type of experiment: functional.
Experiment [6] can be described thus: inhibitors of intracellular T. cruzi replication, confirmation, NIH3T3 host cells, beta-gal luminescence (AID 2044).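 Note: intracellular parasites grown in NIH/3T3 mouse fibroblasts as host cells; luminescent beta-galactosidase reporter signal from transgenic T. cruzi replicating inside host cells; inhibitors lower the luminescence signal.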 Type of experiment: functional, cell-based.
A short description of experiment [7]: HEp-2 cell cytotoxicity, dose response, cytotoxicity control for RSV inhibitor project, HTS (AID 2410). Type of experiment: functional. Conditions: human respiratory syncytial virus.
For experiment [8], the target named is Cytochrome P450 2C9 (Homo sapiens, UniProt P11712).
Chain of Cytochrome P450 2C9 (P11712 whole entry): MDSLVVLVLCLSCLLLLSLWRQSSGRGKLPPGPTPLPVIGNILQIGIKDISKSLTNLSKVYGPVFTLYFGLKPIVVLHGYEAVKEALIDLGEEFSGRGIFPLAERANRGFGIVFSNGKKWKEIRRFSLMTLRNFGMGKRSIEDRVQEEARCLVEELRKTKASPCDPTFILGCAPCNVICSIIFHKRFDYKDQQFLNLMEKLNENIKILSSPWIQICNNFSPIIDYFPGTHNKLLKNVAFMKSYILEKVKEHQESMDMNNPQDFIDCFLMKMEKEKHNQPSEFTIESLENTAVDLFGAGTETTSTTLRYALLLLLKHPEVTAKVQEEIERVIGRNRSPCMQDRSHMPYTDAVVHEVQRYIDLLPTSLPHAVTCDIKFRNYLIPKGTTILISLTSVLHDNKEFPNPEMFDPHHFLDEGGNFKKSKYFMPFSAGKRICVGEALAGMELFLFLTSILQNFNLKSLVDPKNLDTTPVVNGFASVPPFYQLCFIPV

Calls of active or inactive are those of the source. Bounds are passed on as bounds.

Broadly, the AC50 is the midpoint of the concentration-response curve, whichever way the signal moves. For `COC(=O)[C@@]1(Cc2ccccc2)[C@H]2c3cc(C(=O)N4CCCC4)n(C)c3C[C@H]2CN1C(=O)c1ccccc1`, in experiment [1], the AC50 was 25.1 µM (inconclusive).

By EC50 is commonly meant the concentration needed to bring the measured effect to its halfway point. On to `O=C(NC(=C(Cl)Cl)S(=O)(=O)c1ccc(Cl)cc1)c1ccccc1`, for which, in experiment [2], the EC50 is 1.53 µM (active). The AC50 in experiment [3] was > 380 µM (inactive).

As for `COc1ccc(C(=O)NC(=S)N2CCCCC2c2cccnc2)cc1OC` (configuration not stated), the EC50 in experiment [4] was > 260 µM (inactive); in experiment [5], > 60 µM (not active); in experiment [6], 1.32 µM (active).

On to `COc1ccc(-c2nc3scc(-c4ccccc4)n3n2)cc1`, for which, in experiment [4], the EC50 is > 260 µM (inactive).

The CC50 is the concentration that lowers cell viability or growth by half. Consider `CCC(C)Oc1ccc(/C=C/c2nc(O)nc(O)c2[N+](=O)[O-])cc1OC` (configuration not stated), for which the CC50 in experiment [7] was 12.9 µM (active).

Take `COc1ccc(-c2cc(OC)c3ccccc3n2)cc1`: in experiment [7], the CC50 was > 50 µM (active).

Turning to `CCOc1cc(C(c2c(C)n[nH]c2O)c2c(C)n[nH]c2O)ccc1OS(=O)(=O)c1ccc(C)cc1`, in experiment [2], the EC50 is 0.152 µM (active). Also, the AC50 in experiment [3] was 0.413 µM (active).

Consider `CC1(C)SC(=S)N(NC(=O)Nc2ccccc2)C1N(O)C(=O)Nc1ccccc1` (configuration not stated), for which, in experiment [1], the AC50 was 28.2 µM (inconclusive).

Consider `COc1ccc(CN2CN(c3ccc(Cl)cc3)C(=O)N(n3cnnc3)C2)cc1`, for which the AC50 in experiment [8] is 39.8 µM (inconclusive); in experiment [1] it was 15.8 µM (inconclusive).

Consider `COC(=O)Cc1c(C)nc2nc(NCc3ccccc3OC)nn2c1O`, for which, in experiment [8], the AC50 is 22.4 µM (inconclusive).

For the compound `COCCn1c(=O)cnc2cnc(Nc3cccc(OC)c3)nc21`, in experiment [8], the AC50 was 25.1 µM (inconclusive).

With `Cc1oc(-c2ccccc2Cl)nc1CSCC(=O)NC1CC1`, the AC50 in experiment [8] is 20 µM (inconclusive).

As to `COc1cc(/C=C(/C#N)C(=O)c2c(C)[nH]c3ccccc23)ccc1OCC#N`, the EC50 in experiment [4] is > 260 µM (inactive).

For `Oc1ncnc2scc(-c3ccc(Br)cc3)c12`, in experiment [7], the CC50 was > 50 µM (active).

For the compound `COc1ccc(C)cc1Nc1nc(N)c2ccccc2n1`, in experiment [7], the CC50 is > 50 µM (active).

For the compound `CN(C)c1ncc2nc(-c3ccccc3)c(=O)n(Cc3ccc(F)cc3)c2n1`, the AC50 in experiment [1] was 12.6 µM (inconclusive).

With `CC(C)C(=O)N1CCN(c2c(Cl)cccc2[N+](=O)[O-])CC1`, the CC50 in experiment [7] was 16.3 µM (active).

Take `COc1ccccc1Nc1ncc(-c2cccs2)s1`: the CC50 in experiment [7] was 43 µM (active).

Regarding `CNC(=S)N1CCN(c2ccccc2OC)CC1`, the AC50 in experiment [8] was 14.1 µM (inconclusive).

`CN(C)CCn1c(C(=O)O)cc2ccccc21`: the AC50 in experiment [1] was 0.0158 µM (inconclusive).

Consider `COC(=O)c1ccc2c(=O)n(CCO)c(=S)[nH]c2c1`, for which the CC50 in experiment [7] was 25.2 µM (active).

For `Cc1ccc(OCC(=O)NC2=NCCS2)cc1`, the AC50 in experiment [8] was 10 µM (inconclusive).

With `NS(=O)(=O)c1cccc(NC(=O)COC(=O)c2cc(-c3ccc(Cl)cc3)nc3ccccc23)c1`, the CC50 in experiment [7] was 18.5 µM (active).

As for `O=C(Nc1ccccc1C(=O)OCC(=O)c1c[nH]c2ccccc12)c1ccco1`, the EC50 in experiment [4] is 55.3 µM (active).

As for `COC(=O)c1ccccc1OCC(=O)N1CCN(c2ccc(Cl)cc2)CC1`, the AC50 in experiment [8] and in experiment [1] was 14.1 µM (inconclusive) each time.

Consider `CCn1c(SCc2ccc(Cl)cc2Cl)nc2nc3c(cc2c1=O)CCCC3`, for which, in experiment [8], the AC50 is 5.01 µM (inconclusive).

Turning to `CCOC(=O)[C@H](N)/C=C(\C)CP(=O)(O)O`, in experiment [8], the concentration at half-maximal activity (AC50) was 25.1 µM (inconclusive).

In the case of `CCN(CC(=O)NC(C)C)Cc1nc(O)c2c3c(sc2n1)CCC3`, in experiment [4], the EC50 is > 260 µM (inactive).

Turning to `COc1cc(N)c(Cc2nccc3cc(OC)c(OC)cc23)cc1OC`, the EC50 in experiment [2] is 31.7 µM (active). Also, the AC50 in experiment [3] is > 380 µM (inactive).

`NC(=O)CSC1=N/C(=C\c2ccco2)C(=O)N1c1ccc(OC(F)F)cc1`: the EC50 in experiment [4] was 13.7 µM (active).

As for `COC(=O)c1c(C)oc2ccc(N(C(=O)Oc3ccccc3)S(=O)(=O)c3ccccc3)cc12`, the EC50 in experiment [4] is > 260 µM (inactive).

Consider `c1ccc(SC(Sc2ccccc2)c2ccc3c(c2)OCO3)cc1`, for which, in experiment [1], the AC50 was 0.501 µM (inconclusive).

On to `CNc1cc([N+](=O)[O-])ccc1OCc1ccccc1`, for which, in experiment [7], the CC50 was 18.7 µM (active).

`CC(C)C(=O)N1CCC(n2nccc2NC(=O)CCOc2ccccc2)CC1`: the EC50 in experiment [4] is > 260 µM (inactive).

With `CCNC(=O)C(=O)NCc1ccncc1`, in experiment [4], the EC50 is > 260 µM (inactive).

Consider `Cc1ccccc1OC[C@H](O)CO`, for which the AC50 in experiment [1] was 15.8 µM (inconclusive).

With `COc1ccc(S(=O)(=O)NC2(C(F)(F)F)N=C3SCCN3C2=O)cc1` (configuration not stated), the AC50 in experiment [8] was 28.2 µM (inconclusive); in experiment [1], 31.6 µM (inconclusive).

Regarding `Cc1onc(-c2c(Cl)cccc2Cl)c1C(=O)N1C(C)CCCC1C` (configuration not stated), the EC50 in experiment [2] is > 380 µM (inactive). Also, the AC50 in experiment [3] was 118 µM (active).

As to `COc1ccc(/C=N/N=C(\N)c2nonc2N)cc1OC`, the CC50 in experiment [7] was 30.9 µM (active).

As to `CC(C)n1cc(/C=N/NC(=O)COc2cccc3cccnc23)c2ccccc21`, the EC50 in experiment [4] was 75.1 µM (active).

For `C=CCc1cccc(/C=N/c2cnc(O)nc2O)c1O`, in experiment [2], the EC50 was > 380 µM (inconclusive). Further, the AC50 in experiment [3] is > 380 µM (inactive).

For `CN(C)/C=N/c1nc(-c2ccc3ccccc3c2)cs1`, the CC50 in experiment [7] is 22.8 µM (active).

The record behind these values is ChEMBL document CHEMBL1201862, “PubChem BioAssay data set” (2004).
